From patent US20060166985A1, “Pyrrolydin-2-one derivatives as inhibitors of thrombin and factor xa” (priority 2002, published 2006)
pKi: −log10 of the molar value.

Molecular target: human Thrombin (Homo sapiens, UniProt P00734)
Assay: In vitro assay for inhibition of Thrombin (chromogenic or fluorogenic assay)
Format: biochemical
Details: Example 2 chromogenic assay, other Examples fluorogenic assay, read-out: thrombin inhibitory Ki
Description: Thrombin inhibitory activity is measured by the ability to inhibit human α-thrombin in a chromogenic assay using N-p-tosyl-gly-pro-lys p-nitroanilide as the chromogenic substrate, or in a fluorogenic assay using Rhodamine 110, bis-(CBZ-L-valyl-L-prolyl-L-arginine amide) as the fluorogenic substrate.
The compound was diluted from a 10 mM stock solution in dimethylsulfoxide at appropriate concentrations. Assay was performed at room temperature using buffer consisting of: 50 mM HEPES, 150 mM NaCl, 5 mM CaCl2, 0.1% PEG, pH 7.4. containing human Thrombin (final conc. of 1 nM). Compound and enzyme were preincubated for 15 min prior to addition of the substrate (final conc. of 100 μM). The reaction was stopped after 30 min with the addition of soybean trypsin inhibitor or H-D-PHE-PRO-ARG-Chloromethylketone. […] To obtain IC50 values the data were analysed using ActivityBase® and XLfit®.
Compounds were diluted from a 10 mM stock solution in dimethylsulfoxide at appropriate concentrations. Assay was performed at room temperature using buffer consisting of: 50 mM HEPES, 150 mM NaCl, 5 mM CaCl2, 0.1% PEG, pH 7.4. containing human Thrombin (final conc. Of 0.2 nM). Compound and enzyme were preincubated for 15 min prior to addition of the substrate (final conc. of 10 μM). The reaction was stopped after 3 hrs with the addition of H-D-PHE-PRO-ARG-Chloromethylketone. […] To obtain IC50 values the data were analysed using ActivityBase® and XLfit®.

Structure (SMILES)	pKi
CC[C@H](C)[C@@H](C(=O)N1CCOCC1)N1CC[C@H](N(C)S(=O)(=O)CCc2ccc(Cl)s2)C1=O [Example 38, 2-(5-chlorothien-2-yl)-N-methyl-N-{(3S)-1-[(1S,2S)-2-methyl-1-(morpholin-4-ylcarbonyl)butyl]-2-oxopyrrolidin-3-yl}ethanesulfonamide]	> 8.00
C[C@@H](C(=O)N1CCOCC1)N1CC[C@H](N(C)S(=O)(=O)CCc2ccc(Cl)s2)C1=O [Example 19, 2-(5-Chlorothien-2-yl)-N-methyl-N-{(3S)-1-[(1S)-1-methyl-2-morpholin-4-yl-2-oxoethyl]-2-oxopyrrolidin-3-yl}ethanesulfonamide]	> 7.30
CC[C@@H](C(=O)N1CCOCC1)N1CC[C@H](NS(=O)(=O)CCc2ccc(Cl)s2)C1=O [Example 5, 2-(5-chlorothien-2-yl)-N-{(3S)-1-[(1S)-1-(morpholin-4-ylcarbonyl)propyl]-2-oxopyrrolidin-3-yl}ethanesulfonamide]	> 7.60
COC(=O)CN([C@H]1CCN([C@@H](C)C(=O)N2CCOCC2)C1=O)S(=O)(=O)CCc1ccc(Cl)s1 [Example 35, Methyl N-{[2-(5-chlorothien-2-yl)ethyl]sulfonyl}-N-{(3S)-1-[(1S)-1-methyl-2-morpholin-4-yl-2-oxoethyl]-2-oxopyrrolidin-3-yl}glycinate]	> 7.60
C/C(=C\S(=O)(=O)N[C@H]1CCN([C@H](C(=O)N2CCOCC2)C(C)C)C1=O)c1ccc(Cl)s1 [Example 9, (1E)-2-(5-chlorothien-2-yl)-N-{(3S)-1-[(1S)-2-methyl-1-(morpholin-4-ylcarbonyl)propyl]-2-oxopyrrolidin-3-yl}prop-1-ene-1-sulfonamide]	> 8.00
CC[C@@H](C(=O)N1CCOCC1)N1CC[C@H](NS(=O)(=O)CCc2ccc(Cl)cc2)C1=O [Example 6, 2-(4-chlorophenyl)-N-{(3S)-1-[(1S)-1-(morpholin-4-ylcarbonyl)propyl]-2-oxopyrrolidin-3-yl}ethanesulfonamide]	> 7.00
C/C(=C\S(=O)(=O)N[C@H]1CCN([C@@H](C)C(=O)N2CCOCC2)C1=O)c1ccc(Cl)cc1 [Example 3, (1E)-2-(4-chlorophenyl)-N-{(3S)-1-[(1S)-1-methyl-2-morpholin-4-yl-2-oxoethyl]-2-oxopyrrolidin-3-yl}prop-1-ene-1-sulfonamide]	> 7.60
CC[C@H](C)[C@@H](C(=O)N1CCOCC1)N1CC[C@H](NS(=O)(=O)CCc2ccc(Cl)s2)C1=O [Example 10, 2-(5-chlorothien-2-yl)-N-{(3S)-1-[(1S,2S)-2-methyl-1-(morpholin-4-ylcarbonyl)butyl]-2-oxopyrrolidin-3-yl}ethanesulfonamide]	> 8.00
O=C([C@H](Cc1cccs1)N1CC[C@H](NS(=O)(=O)CCc2ccc(Cl)cc2)C1=O)N1CCOCC1 [Example 24, 2-(4-chlorophenyl)-N-{(3S)-1-[(1S)-2-morpholin-4-yl-2-oxo-1-(thien-2-ylmethyl)ethyl]-2-oxopyrrolidin-3-yl}ethanesulfonamide]	> 7.60
CC[C@H](C)[C@@H](C(=O)N1CCOCC1)N1CC[C@H](NS(=O)(=O)/C=C(\F)c2ccc(Cl)cc2)C1=O [Example 30, (Z)-2-(4-chlorophenyl)-2-fluoro-N-{(3S)-1-[(1S,2S)-2-methyl-1-(morpholin-4-ylcarbonyl)butyl]-2-oxopyrrolidin-3-yl}ethenesulfonamide]	> 6.70
O=C(C[C@@H](C(=O)N1CCOCC1)N1CC[C@H](NS(=O)(=O)CCc2ccc(Cl)s2)C1=O)OCc1ccccc1 [Example 21, Benzyl (3S)-3-[(3S)-3-({[2-(5-chlorothien-2-yl)ethyl]sulfonyl}amino)-2-oxopyrrolidin-1-yl]-4-morpholin-4-yl-4-oxobutanoate]	> 8.00

Results, then the compound that gave them:

pKi	Structure (SMILES)
> 7.00	O=C([C@H](CCN1CCOCC1)N1CC[C@H](NS(=O)(=O)CCc2ccc(Cl)s2)C1=O)N1CCOCC1 [Example 95, 2-(5-chloro-2-thienyl)-N-{(3S)-1-[(1S)-3-(4-morpholinyl)-1-(4-morpholinylcarbonyl)propyl]-2-oxo-3-pyrrolidinyl}ethanesulfonamide]
> 7.30	CC(C)[C@@H](C(=O)N1CCOCC1)N1CC[C@H](NS(=O)(=O)CCc2ccc(Cl)cc2)C1=O [Example 45, 2-(4-chlorophenyl)-N-{(3S)-1-[(1S)-2-methyl-1-(morpholin-4-ylcarbonyl)propyl]-2-oxopyrrolidin-3-yl}ethanesulfonamide]
> 7.30	Cn1cnc(C[C@@H](C(=O)N2CCOCC2)N2CC[C@H](NS(=O)(=O)CCc3ccc(Cl)s3)C2=O)n1 [Example 80, 2-(5-chloro-2-thienyl)-N-{(3S)-1-[(1S)-1-[(1-methyl-1H-1,2,4-triazol-3-yl)methyl]-2-(4-morpholinyl)-2-oxoethyl]-2-oxo-3-pyrrolidinyl}ethanesulfonamide]
> 6.70	COC[C@@H](C(=O)N1CCOCC1)N1CC[C@H](NS(=O)(=O)CCc2ccc(Cl)cn2)C1=O [Example 50, 2-(5-chloro-2-pyridinyl)-N-{(3S)-1-[(1S)-1-[(methyloxy)methyl]-2-(4-morpholinyl)-2-oxoethyl]-2-oxo-3-pyrrolidinyl}ethanesulfonamide]
> 7.30	C[C@@H](C(=O)N1CCOCC1)N1CC[C@H](NS(=O)(=O)CC2OCc3cc(Cl)ccc32)C1=O (stereo partly drawn) [Example 66, 1-(5-chloro-1,3-dihydro-2-benzofuran-1-yl)-N-{(3S)-1-[(1S)-1-methyl-2-(4-morpholinyl)-2-oxoethyl]-2-oxo-3-pyrrolidinyl}methanesulfonamide]
> 7.00	CN(C)CC[C@@H](C(=O)N1CCOCC1)N1CC[C@H](NS(=O)(=O)CCc2ccc(Cl)s2)C1=O [Example 93, 2-(5-chloro-2-thienyl)-N-{(3S)-1-[(1S)-3-(dimethylamino)-1-(4-morpholinylcarbonyl)propyl]-2-oxo-3-pyrrolidinyl}ethanesulfonamide]
> 8.00	CCOC[C@@H](C(=O)N1CCOCC1)N1CC[C@H](NS(=O)(=O)/C=C(\C)c2ccc(Cl)s2)C1=O [Example 87, (1E)-2-(5-chloro-2-thienyl)-N-{(3S)-1-[(1S)-1-[(ethyloxy)methyl]-2-(4-morpholinyl)-2-oxoethyl]-2-oxo-3-pyrrolidinyl}-1-propene-1-sulfonamide]
> 7.00	C[C@@H](C(=O)N1CCOCC1)N1CC[C@H](NS(=O)(=O)CC2COc3cc(Cl)ccc32)C1=O (stereo partly drawn) [Example 64, 1-(6-chloro-2,3-dihydro-1-benzofuran-3-yl)-N-{(3S)-1-[(1S)-1-methyl-2-(4-morpholinyl)-2-oxoethyl]-2-oxo-3-pyrrolidinyl}methanesulfonamide]
> 6.70	C[C@@H](C(=O)N1CCOCC1)N1CC[C@H](NS(=O)(=O)CCc2ccc(Cl)cc2Cl)C1=O [Example 42, 2-(2,4-dichlorophenyl)-N-{(3S)-1-[(1S)-1-methyl-2-morpholin-4-yl-2-oxoethyl]-2-oxopyrrolidin-3-yl}ethanesulfonamide]
> 7.60	Cc1noc(C[C@@H](C(=O)N2CCOCC2)N2CC[C@H](NS(=O)(=O)CCc3ccc(Cl)s3)C2=O)n1 [Example 78, 2-(5-chloro-2-thienyl)-N-{(3S)-1-[(1S)-1-[(3-methyl-1,2,4-oxadiazol-5-yl)methyl]-2-(4-morpholinyl)-2-oxoethyl]-2-oxo-3-pyrrolidinyl}ethanesulfonamide]
> 8.00	O=C([C@H](Cc1cccnc1)N1CC[C@H](NS(=O)(=O)CCc2ccc(Cl)s2)C1=O)N1CCOCC1 [Example 91, 2-(5-chloro-2-thienyl)-N-{(3S)-1-[(1S)-2-(4-morpholinyl)-2-oxo-1-(3-pyridinylmethyl)ethyl]-2-oxo-3-pyrrolidinyl}ethanesulfonamide]
> 7.60	CC[C@H](C)[C@@H](C(=O)N1CCOCC1)N1CC[C@H](NS(=O)(=O)CCc2ccc(Cl)cn2)C1=O [Example 48, 2-(5-chloro-2-pyridinyl)-N-{(3S)-1-[(1S,2S)-2-methyl-1-(4-morpholinylcarbonyl)butyl]-2-oxo-3-pyrrolidinyl}ethanesulfonamide]
> 7.60	CCOC[C@@H](C(=O)N1CCOCC1)N1CC[C@H](NS(=O)(=O)CCc2ccc(Cl)cc2)C1=O [Example 86, 2-(4-chlorophenyl)-N-((3S)-1-[(1S)-1-[(ethyloxy)methyl]-2-(4-morpholinyl)-2-oxoethyl]-2-oxo-3-pyrrolidinyl}ethanesulfonamide]
> 7.30	Cc1noc(C[C@@H](C(=O)N2CCOCC2)N2CC[C@H](NS(=O)(=O)CC(C)c3ccc(Cl)s3)C2=O)n1 (stereo partly drawn) [Example 60, 2-(5-chloro-2-thienyl)-N-{(3S)-1-[(1S)-1-[(3-methyl-1,2,4-oxadiazol-5-yl)methyl]-2-(4-morpholinyl)-2-oxoethyl]-2-oxo-3-pyrrolidinyl}-1-propanesulfonamide]
> 7.30	COC[C@@H](C(=O)N1CCOCC1)N1CC[C@H](N(CC(=O)N(C)C)S(=O)(=O)CCc2ccc(Cl)s2)C1=O [Example 97, N^2-{[2-(5-chloro-2-thienyl)ethyl]sulfonyl}-N^1,N^1-dimethyl-N^2-{(3S)-1-[(1S)-1-[(methyloxy)methyl]-2-(4-morpholinyl)-2-oxoethyl]-2-oxo-3-pyrrolidinyl}glycinamide]
> 6.70	CS(=O)(=O)CC[C@@H](C(=O)N1CCOCC1)N1CC[C@H](NS(=O)(=O)CCc2ccc(Cl)cc2)C1=O [Example 99, 2-(4-chlorophenyl)-N-{(3S)-1-[(1S)-3-(methylsulfonyl)-1-(4-morpholinylcarbonyl)propyl]-2-oxo-3-pyrrolidinyl}ethanesulfonamide]
